Laboratory results reported in paper PMC7051184, “C9orf72 arginine-rich dipeptide repeat proteins disrupt karyopherin-mediated nuclear import” (eLife, 2020).
Blank lines part the entries; values can stand above or below the compound they belong to. Where a SMILES comes first, the peptide text is derived from it. Where no end group is shown, it is not given here.

What was measured:
[1] = target: T1, importin β-mediated nuclear import of Rango (Homo sapiens, UniProt Q14974); assay: Permeabilized cell nuclear import assay, Rango, HeLa; type: cell-based
T1 sequence (Q14974 whole entry): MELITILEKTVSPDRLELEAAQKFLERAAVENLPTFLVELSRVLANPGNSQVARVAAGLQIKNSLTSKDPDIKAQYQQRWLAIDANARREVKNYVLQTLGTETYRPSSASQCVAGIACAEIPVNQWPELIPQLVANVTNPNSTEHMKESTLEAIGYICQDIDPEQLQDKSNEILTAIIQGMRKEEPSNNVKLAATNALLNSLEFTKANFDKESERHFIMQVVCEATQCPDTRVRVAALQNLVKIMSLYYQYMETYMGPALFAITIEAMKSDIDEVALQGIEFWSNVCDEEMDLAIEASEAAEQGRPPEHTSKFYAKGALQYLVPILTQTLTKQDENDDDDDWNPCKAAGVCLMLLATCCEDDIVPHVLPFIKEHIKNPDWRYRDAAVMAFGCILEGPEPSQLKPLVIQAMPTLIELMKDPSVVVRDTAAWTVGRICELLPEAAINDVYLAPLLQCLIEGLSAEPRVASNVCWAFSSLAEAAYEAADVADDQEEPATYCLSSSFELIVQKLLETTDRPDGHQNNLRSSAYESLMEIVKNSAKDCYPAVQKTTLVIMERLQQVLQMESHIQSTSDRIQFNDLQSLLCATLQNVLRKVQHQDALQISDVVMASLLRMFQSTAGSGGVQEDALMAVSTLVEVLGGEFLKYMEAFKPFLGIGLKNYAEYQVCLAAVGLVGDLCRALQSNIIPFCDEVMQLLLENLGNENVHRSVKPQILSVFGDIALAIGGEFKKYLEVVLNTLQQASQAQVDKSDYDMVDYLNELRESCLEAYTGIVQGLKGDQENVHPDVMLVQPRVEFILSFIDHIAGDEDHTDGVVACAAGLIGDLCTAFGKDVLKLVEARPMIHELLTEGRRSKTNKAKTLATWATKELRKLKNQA

[2] = system: nuclear transport of NLS-NES shuttle proteins; details: synthetic peptide added to HeLa cells in the culture media; ref Vanneste et al., 2019; cited from earlier work
From the text: (§1) Additional studies have since investigated mechanisms by which individual DPRs may disrupt the nuclear transport apparatus. […] PR20 was previously shown by STE ...

[3] = system: nuclear import of NLS-BSA; details: permeabilized HeLa cells; ref Shi et al., 2017; cited from earlier work
From the text: as §1

[4] = system: Nup54 and 98 FG-domain polymers; details: ref Shi et al., 2017; cited from earlier work
From the text: The rate of passive transport through the NPC is governed by the FG-Nup barrier ([Mohr et al., 2009]; [Timney et al., 2016]; [Frey et al., 2018]), in addition to local concentrations of importin β and RanGTP ([Ma et al., 2012]; [Kapinos et al., 2017]). R-DPR/FG-domain interactions are predicted based on the propensity of arginines to undergo cation-pi interactions with aromatic phenylalanine rings (reviewed by [Gallivan and Dougherty, 1999]; [Banani et al., 2017]). Indeed, previous interactome studies predicted R-DPR interactions with FG-Nups including Nup54, 62, 98, 153, and 214 ([Lin et al., ...

[5] = system: proteasome; details: ref Gupta et al., 2017; cited from earlier work
From the text: Throughout this study, we observed marked differences in the behavior of GR and PR. […] Based on their divergent molecular properties, the differing behavior of GR and PR is not surprising. On one hand, bot ...

[6] = target: T1, importin β-mediated nuclear import of Rango; assay: Permeabilized cell nuclear import assay, Rango, mouse primary cortical neurons; type: cell-based; details: importin β small molecule inhibitor control
From the text: All animal procedures were approved by the Johns Hopkins Animal Care and Use Committee. Timed pregnant C57BL/6J females (Jackson Laboratory, Bar Harbor, ME) were sacrificed by cervical dislocation at E16, cortex dissociated, and cells plated at 50,000/well on poly-D-lysine/laminin-coated, optical glass-bottom 96-well plates. Growth medium consisted of Neurobasal supplemented with B27, Glutamax, and penicillin/streptomycin (Gibco/ThermoFisher). At 5–7 days in vitro, neurons were rinsed in prewarmed PBS and permeabilized for 4 min. at 37° in a hypotonic solution containing […] Tris-HCl pH 7.5 (to cause osmotic swelling) and 50–150 mg/ml BSA (for molecular crowding/mechanical support). Following permeabilization, cells were placed on ice and rinsed 2 × 5 min in transport buffer (TRB, 20 mM HEPES, 110 mM KOAc, 2 mM Mg(OAc)2, 5 mM NaOAc, 0.5 mM EGTA, 250 mM sucrose, pH 7.3, with protease inhibitor cocktail). All rinse and assay buffers were supplemented with 50 mg/mL BSA. The optimal hypotonic buffer and BSA concentration varied by batch, and was optimized prior to each set of assays for ability to permeabilize the majority of plasma membranes while maintaining nuclear exclusion of a 70 kD fluorescent dextran (ThermoFisher).
Concentrated whole cell lysates were prepared from HEK293T cells (ATCC, mycoplasma negative and validated by STR profiling), grown in 150 mm dishes and sonicated on ice in 1X TRB in the presence of protease inhibitor cocktail (Roche). The lysates were clarified (15 min, 14000 g, 4C), snap frozen in liquid nitrogen, and stored in single use aliquots at −80C. Total HEK cell RNA was extracted using miRNEasy kits according to the manufacturers’ protocol, with DNase digestion (Qiagen). RNA concentration was measured by Nanodrop (ThermoFisher), and all 260/280 ratios were verified to be > 2.0. Energy regeneration (ER) mix consisted of 100 µM ATP, 100 µM GTP, 4 mM creatine phosphate, and 20 U/mL creatine kinase (Roche).
(§2) Reaction mixes consisting of 2.5 mg/ml lysate, ER, fluorescent cargo (200 nM Rango and YFP-M9-CFP, 500 nM GST-GFP-NLS), Hoechst, DPRs, RNA, or inhibitors (100 µM importazole (IPZ, Millipore Sigma); 0.8 mg/mL wheat germ agglutinin (WGA, Millipore Sigma) were assembled on ice during cell permeabilization. DPRs or inhibitors were allowed to equilibrate in cell lysate for at least 30 min prior to initiation of transport. Every plate included: (1) Cargo alone: fluorescent cargo, but no ER or lysate, (2) Untreated controls: fluorescent cargo, ER, and lysate, and (3) Inhibitor: fluorescent cargo, ER, lysate, and IPZ (Rango and GST-GFP-NLS reactions) or WGA (YFP-M9-CFP). Preassembled transport reactions were then transferred onto permeabilized cells via multichannel pipette, and allowed to proceed at room temperature for 2 hr (Rango, YFP-M9-CFP) or 4 hr (GST-GFP-NLS). Cells were fixed in 4% paraformaldehyde/PBS, rinsed 2x with PBS, and transferred to 50% glycerol/PBS for immediate imaging.
For a subset of neuron transport assays, transport was monitored live via time lapse imaging every 5 min for 30 min. In a subset of HeLa assays, transport reactions were centrifuged before use at 14,000g × 15 min to separate soluble and insoluble fractions. In another variation, the transport lysate + DPR and ER mix was allowed to preincubate on the permeabilized HeLa cells for 1 hour prior to initiation of transport, rinsed 1x with TRB, and transport initiated with fresh lysate, cargo, and ER.
Multiple non-overlapping fields per well (4 for time-lapse imaging, 9-16 for fixed imaging), were captured at 40x on an ImageXpress Micro XLS high-content microscope (Molecular Devices, San Jose, CA), and the ratio of nuclear to cytoplasmic fluorescence intensity was calculated using the MetaXpress automated translocation-enhanced module. Raw data were filtered to exclude autofluorescence and the mean N/C ratio from wells without ER or cell lysate was subtracted from all values.

[7] = target: T1, importin β-mediated nuclear import of Rango; assay: Fractionated Rango transport assay (aggregates present or supernatant only), HeLa; type: cell-based; details: with AF647-labeled importin β
Method: A single cell-derived clone of HeLa cells (ATCC, Manassas, VA; mycoplasma negative and validated by STR profiling) were maintained in OptiMEM (Gibco/ThermoFisher) with 4% FBS and plated on uncoated optical glass-bottom 96 well plates, at appropriate densities to reach 70–90% confluence on the day of the transport assay. To permeabilize, cells were rinsed for 2 min in ice-cold PBS, and permeabilized on ice for 10 min in 15–30 µg/mL digitonin (Calbiochem, San Diego, CA) in permeabilization buffer (PRB, 20 mM HEPES, 110 mM KOAc, 5 mM Mg(OAc)2, 0.5 mM EGTA, 250 mM sucrose, pH 7.5, with protease inhibitor cocktail). Following permeabilization, cells were placed on ice and rinsed 3 × 5 min in transport buffer (TRB, 20 mM HEPES, 110 mM KOAc, 2 mM Mg(OAc)2, 5 mM NaOAc, 0.5 mM EGTA, 250 mM sucrose, pH 7.3, with protease inhibitor cocktail). The optimal digitonin concentration varied by cell density and passage number, and was optimized prior to each set of assays for the ability to permeabilize the majority of plasma membranes while maintaining nuclear exclusion of a 70 kD fluorescent dextran (ThermoFisher).
as §2
For a subset of neuron transport assays, transport was monitored live via time lapse imaging every 5 min for 30 min. […]
Multiple non-overlapping fields per well (4 for time-lapse imaging, 9-16 for fixed imaging), were captured at 40x on an ImageXpress Micro XLS high-content microscope (Molecular Devices, San Jose, CA), and the ratio of nuclear to cytoplasmic fluorescence intensity was calculated using the MetaXpress automated translocation-enhanced module. […] Resulting N/C ratios were expressed as % untreated, to permit comparisons across biological replicates.

Compound: OCCCCCCO [1,6-hexanediol]
Reversal of mild nuclear import inhibition ([1]; 25 µM PR10): neither 1,6-hexanediol nor exogenous importin β could reverse mild nuclear import inhibition
Effect on Rango import at baseline ([1]; no DPR): caused dose-dependent inhibition at baseline

Compound: N=C(N)NCCC[C@H](NC(=O)CNC(=O)[C@H](CCCNC(=N)N)NC(=O)CNC(=O)[C@H](CCCNC(=N)N)NC(=O)CNC(=O)[C@H](CCCNC(=N)N)NC(=O)CNC(=O)[C@H](CCCNC(=N)N)NC(=O)CNC(=O)[C@H](CCCNC(=N)N)NC(=O)CNC(=O)[C@H](CCCNC(=N)N)NC(=O)CNC(=O)[C@H](CCCNC(=N)N)NC(=O)CNC(=O)[C@H](CCCNC(=N)N)NC(=O)CNC(=O)[C@H](CCCNC(=N)N)NC(=O)CNC(=O)[C@H](CCCNC(=N)N)NC(=O)CNC(=O)[C@H](CCCNC(=N)N)NC(=O)CNC(=O)[C@H](CCCNC(=N)N)NC(=O)CNC(=O)[C@H](CCCNC(=N)N)NC(=O)CNC(=O)[C@H](CCCNC(=N)N)NC(=O)CNC(=O)[C@H](CCCNC(=N)N)NC(=O)CNC(=O)[C@H](CCCNC(=N)N)NC(=O)CNC(=O)[C@H](CCCNC(=N)N)NC(=O)CNC(=O)[C@H](CCCNC(=N)N)NC(=O)CNC(=O)[C@H](CCCNC(=N)N)NC(=O)CN)C(=O)O [GR20]
Effect on nuclear transport of fluorescent NLS-NES shuttle proteins [2]: unable to impede nuclear transport

Compound: N=C(N)NCCC[C@H](NC(=O)[C@@H]1CCCN1C(=O)[C@H](CCCNC(=N)N)NC(=O)[C@@H]1CCCN1C(=O)[C@H](CCCNC(=N)N)NC(=O)[C@@H]1CCCN1C(=O)[C@H](CCCNC(=N)N)NC(=O)[C@@H]1CCCN1C(=O)[C@H](CCCNC(=N)N)NC(=O)[C@@H]1CCCN1C(=O)[C@H](CCCNC(=N)N)NC(=O)[C@@H]1CCCN1C(=O)[C@H](CCCNC(=N)N)NC(=O)[C@@H]1CCCN1C(=O)[C@H](CCCNC(=N)N)NC(=O)[C@@H]1CCCN1C(=O)[C@H](CCCNC(=N)N)NC(=O)[C@@H]1CCCN1C(=O)[C@H](CCCNC(=N)N)NC(=O)[C@@H]1CCCN1C(=O)[C@H](CCCNC(=N)N)NC(=O)[C@@H]1CCCN1C(=O)[C@H](CCCNC(=N)N)NC(=O)[C@@H]1CCCN1C(=O)[C@H](CCCNC(=N)N)NC(=O)[C@@H]1CCCN1C(=O)[C@H](CCCNC(=N)N)NC(=O)[C@@H]1CCCN1C(=O)[C@H](CCCNC(=N)N)NC(=O)[C@@H]1CCCN1C(=O)[C@H](CCCNC(=N)N)NC(=O)[C@@H]1CCCN1C(=O)[C@H](CCCNC(=N)N)NC(=O)[C@@H]1CCCN1C(=O)[C@H](CCCNC(=N)N)NC(=O)[C@@H]1CCCN1C(=O)[C@H](CCCNC(=N)N)NC(=O)[C@@H]1CCCN1C(=O)[C@H](CCCNC(=N)N)NC(=O)[C@@H]1CCCN1)C(=O)O [PR20] (H-PRPRPRPRPRPRPRPRPRPRPRPRPRPRPRPRPRPRPRPR-OH; N-terminus and C-terminus assumed)
Effect on nuclear import of NLS-BSA [3]: impeded nuclear import of NLS-BSA
Effect on nuclear transport of fluorescent NLS-NES shuttle proteins [2]: unable to impede nuclear transport
Binding to FG-domain polymers [4]: bind and stabilize Nup54 and 98 FG-domain polymers
Inhibition of proteosomal degradation [5]: shown to inhibit proteosomal degradation

Effect on Rango import in permeabilized neurons [6]: can be inhibited
Compound: CC(Nc1nc(N2CCCC2)nc2ccccc12)c1ccccc1 (stereo not shown) [importazole, Importazole, reference compound]

Location of AF488-labeled DPR in fractionated transport reactions (confocal) [7]: fully sedimented into the pellet
Compound: AF488-GR10: GR10 labeled with Alexa Fluor 488 C5-maleimide (GRGRGRGRGRGRGRGRGRGRKC(Alexa Fluor 488 C5‑maleimide))

Compound: AF488-PR10: PR10 labeled with Alexa Fluor 488 C5-maleimide (PRPRPRPRPRPRPRPRPRPRKC(Alexa Fluor 488 C5‑maleimide))
Location of AF488-labeled DPR in fractionated transport reactions (confocal) [7]: remained in the supernatant and was present at the nuclear envelope
